One data set addresses PDGFRa (Homo sapiens (Human), UniProt P16234). Kind of data set: Kinase screening assay (IC50). The class given is biochemical.
Another data set addresses YES (Homo sapiens (Human), UniProt P07947). Briefly: Kinase screening assay (IC50).
A further data set has as its target LCK (Homo sapiens (Human), UniProt P06239). Kind of data set: Kinase screening assay (IC50).
In another data set the target is LYN (Homo sapiens (Human), UniProt P07948). Briefly: Kinase screening assay (IC50).
For another data set, the target named is KIT (Homo sapiens (Human), UniProt P10721). Kind of data set: Kinase screening assay (IC50).
For the next data set, the target named is BLK (Homo sapiens (Human), UniProt P51451). Briefly: Kinase screening assay (IC50).
A further data set has as its target HCK (Homo sapiens (Human), UniProt P08631). Briefly: Kinase screening assay (IC50).
The next data set concerns the target FYN (Homo sapiens (Human), UniProt P06241). Kind of data set: Kinase screening assay (IC50).
The target of the next data set is mTOR (Homo sapiens (Human), UniProt P42345). Briefly: Kinase screening assay (IC50). It counts as biochemical.
A further data set deals with RET (Homo sapiens (Human), UniProt P07949). Briefly: Kinase screening assay (IC50).
The target of the next data set is FGR (Homo sapiens (Human), UniProt P09769). Kind of data set: Kinase screening assay (IC50).
The target of a further data set is SRC (Homo sapiens (Human), UniProt P12931). Kind of data set: Kinase screening assay (IC50). To be noted: for IC50: 10 μM ATP, read-out: Target inhibition (IC50) SRC. The class given is biochemical.
A further data set deals with ABL (Homo sapiens (Human), UniProt P00519). Kind of data set: Kinase screening assay (IC50). It counts as biochemical.
The target in another data set is FRK/PTK5 (Homo sapiens (Human), UniProt P42685). Kind of data set: Kinase screening assay (IC50).
A further data set deals with CYP1A2 (Homo sapiens (Human), UniProt P05177). Briefly: in vitro.
The next data set deals with CYP2C9 (Homo sapiens (Human), UniProt P11712). Kind of data set: CYP P450 inhibition.
The conditions of data set [1]: rat, serum.
For data set [2] the following is noted: human, serum.
Another data set has as its target CYP2D6 (Homo sapiens (Human), UniProt P10635). Briefly: CYP P450 inhibition.
The next data set concerns the target CYP2C19 (Homo sapiens (Human), UniProt P33261). Briefly: CYP P450 inhibition.
For the next data set, the target named is hERG channel (Homo sapiens (Human), UniProt Q12809). Briefly: hERG Safety Assay, Ionworks high-throughput electrophysiology. Background: Block of hERG is tested as a sign of cardiac risk.
In a further data set the target is CYP3A4 (Homo sapiens (Human), UniProt P08684). Kind of data set: CYP P450 inhibition.
Another data set concerns MDA-MB-231 cells. Kind of data set: Cell viability assay (PrestoBlue). It counts as cell-based. To be noted: Homo sapiens, MDA-MB-231, 120 h, read-out: Antiproliferative activity (EC50) MDA-MB-231; cell viability at day 5.
The next data set deals with MCF7 cells. Briefly: Cell viability assay (PrestoBlue). It counts as cell-based. Conditions: Homo sapiens, MCF7, 120 h; cell viability at day 5; read-out: Antiproliferative activity (EC50) MCF7.
Data set [3] deals with SYF fibroblasts (deficient for Src, Yes, and Fyn). Kind of data set: Cell viability assay (PrestoBlue). To be noted: Mus musculus, Fibroblast, 120 h; cell viability at day 5; read-out: Antiproliferative activity (EC50) SYF (−/− Src). The class given is cell-based, murine.
Where [4] appears, read: 10 μM ATP, read-out: Target inhibition (IC50) PDGFRa.
[5] abbreviates: read-out: Target inhibition (IC50) YES, 10 μM ATP.
Where [6] appears, read: read-out: Target inhibition (IC50) LCK, 10 μM ATP.
Where [7] appears, read: read-out: Target inhibition (IC50) LYN, 10 μM ATP.
[8] abbreviates: read-out: Target inhibition (IC50) KIT, 10 μM ATP.
Where [9] appears, read: read-out: Target inhibition (IC50) BLK, 10 μM ATP.
Setting [10] is: read-out: Target inhibition (IC50) HCK, 10 μM ATP.
[11] abbreviates: read-out: Target inhibition (IC50) FYN, 10 μM ATP.
[12] abbreviates: 10 μM ATP, read-out: Target inhibition (IC50) mTOR.
Where [13] appears, read: read-out: Target inhibition (IC50) RET, 10 μM ATP.
[14] abbreviates: read-out: Target inhibition (IC50) FGR, 10 μM ATP.
Setting [15] is: 10 μM ATP, read-out: Target inhibition (IC50) ABL.
Setting [16] is: read-out: Target inhibition (IC50) FRK/PTK5, 10 μM ATP.

Like-named read-outs stand apart in the source and are kept apart here.

Chain of RET (P07949 29-1114): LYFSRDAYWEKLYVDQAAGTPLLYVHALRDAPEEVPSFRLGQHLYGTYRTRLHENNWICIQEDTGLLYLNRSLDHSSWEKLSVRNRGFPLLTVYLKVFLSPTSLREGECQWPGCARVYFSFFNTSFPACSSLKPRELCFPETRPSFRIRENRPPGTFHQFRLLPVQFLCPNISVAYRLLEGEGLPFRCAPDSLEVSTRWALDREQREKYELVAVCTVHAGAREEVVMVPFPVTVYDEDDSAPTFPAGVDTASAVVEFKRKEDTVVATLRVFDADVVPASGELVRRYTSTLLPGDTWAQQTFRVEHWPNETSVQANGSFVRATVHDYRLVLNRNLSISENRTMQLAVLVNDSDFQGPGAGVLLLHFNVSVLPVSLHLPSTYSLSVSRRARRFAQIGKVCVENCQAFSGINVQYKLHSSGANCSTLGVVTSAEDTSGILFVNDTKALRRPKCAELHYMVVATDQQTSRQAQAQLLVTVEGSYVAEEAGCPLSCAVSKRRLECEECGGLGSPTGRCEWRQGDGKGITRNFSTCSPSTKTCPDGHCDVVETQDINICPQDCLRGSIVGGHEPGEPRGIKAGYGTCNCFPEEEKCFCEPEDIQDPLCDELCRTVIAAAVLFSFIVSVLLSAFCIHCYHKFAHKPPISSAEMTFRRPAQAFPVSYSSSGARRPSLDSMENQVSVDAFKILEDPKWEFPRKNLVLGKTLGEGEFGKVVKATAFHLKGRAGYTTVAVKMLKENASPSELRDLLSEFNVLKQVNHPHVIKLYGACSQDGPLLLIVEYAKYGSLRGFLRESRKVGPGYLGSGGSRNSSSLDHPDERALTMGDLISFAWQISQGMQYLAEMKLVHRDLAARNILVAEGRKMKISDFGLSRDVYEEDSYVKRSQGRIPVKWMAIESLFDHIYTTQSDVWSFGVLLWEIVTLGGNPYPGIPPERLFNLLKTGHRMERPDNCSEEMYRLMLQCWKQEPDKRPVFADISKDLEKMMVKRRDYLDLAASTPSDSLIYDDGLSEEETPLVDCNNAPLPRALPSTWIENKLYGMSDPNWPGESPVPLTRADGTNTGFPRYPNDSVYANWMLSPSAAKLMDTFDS
Chain of PDGFRa (P16234 24-1089): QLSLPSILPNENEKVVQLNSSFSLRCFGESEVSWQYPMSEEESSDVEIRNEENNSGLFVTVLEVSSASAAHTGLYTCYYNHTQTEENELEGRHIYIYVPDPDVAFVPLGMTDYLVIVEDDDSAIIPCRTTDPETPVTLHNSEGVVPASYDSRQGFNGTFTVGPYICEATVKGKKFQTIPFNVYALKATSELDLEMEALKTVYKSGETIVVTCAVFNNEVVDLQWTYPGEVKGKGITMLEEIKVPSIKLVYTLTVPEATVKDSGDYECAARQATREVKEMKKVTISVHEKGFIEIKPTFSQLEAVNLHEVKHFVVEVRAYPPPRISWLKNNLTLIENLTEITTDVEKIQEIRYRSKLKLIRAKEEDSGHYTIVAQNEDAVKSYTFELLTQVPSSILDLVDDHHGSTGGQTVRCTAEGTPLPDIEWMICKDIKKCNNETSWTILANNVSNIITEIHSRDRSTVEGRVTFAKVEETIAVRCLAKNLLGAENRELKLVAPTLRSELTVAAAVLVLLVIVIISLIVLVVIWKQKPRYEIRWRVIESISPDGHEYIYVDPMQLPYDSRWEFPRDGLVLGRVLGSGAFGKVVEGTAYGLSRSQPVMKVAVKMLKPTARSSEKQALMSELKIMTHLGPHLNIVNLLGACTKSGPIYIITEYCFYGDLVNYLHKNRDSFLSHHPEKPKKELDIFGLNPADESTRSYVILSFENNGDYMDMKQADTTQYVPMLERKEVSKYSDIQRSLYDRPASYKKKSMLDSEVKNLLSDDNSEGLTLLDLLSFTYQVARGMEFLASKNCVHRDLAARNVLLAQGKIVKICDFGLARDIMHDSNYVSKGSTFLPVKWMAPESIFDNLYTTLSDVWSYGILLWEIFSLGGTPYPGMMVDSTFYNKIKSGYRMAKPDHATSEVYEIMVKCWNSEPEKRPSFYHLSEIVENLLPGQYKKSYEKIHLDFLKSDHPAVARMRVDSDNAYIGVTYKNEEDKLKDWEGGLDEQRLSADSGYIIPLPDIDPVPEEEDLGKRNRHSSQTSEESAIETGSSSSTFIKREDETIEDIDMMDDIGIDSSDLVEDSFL
Chain of FGR (P09769 whole entry): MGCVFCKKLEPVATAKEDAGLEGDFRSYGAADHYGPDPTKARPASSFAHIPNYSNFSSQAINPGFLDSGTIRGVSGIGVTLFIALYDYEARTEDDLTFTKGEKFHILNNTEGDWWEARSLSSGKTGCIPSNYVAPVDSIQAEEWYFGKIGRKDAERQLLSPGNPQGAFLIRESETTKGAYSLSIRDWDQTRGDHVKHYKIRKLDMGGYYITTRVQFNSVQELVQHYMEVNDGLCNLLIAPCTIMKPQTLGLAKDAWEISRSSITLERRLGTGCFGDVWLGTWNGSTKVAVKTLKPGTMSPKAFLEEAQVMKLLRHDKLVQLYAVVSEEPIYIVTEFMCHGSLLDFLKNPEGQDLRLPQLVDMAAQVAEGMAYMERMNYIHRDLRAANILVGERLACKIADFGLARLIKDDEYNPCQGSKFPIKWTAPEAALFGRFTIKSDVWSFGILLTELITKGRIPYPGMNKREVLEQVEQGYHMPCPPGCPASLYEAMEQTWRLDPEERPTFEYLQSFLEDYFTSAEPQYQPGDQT
Chain of HCK (P08631 whole entry): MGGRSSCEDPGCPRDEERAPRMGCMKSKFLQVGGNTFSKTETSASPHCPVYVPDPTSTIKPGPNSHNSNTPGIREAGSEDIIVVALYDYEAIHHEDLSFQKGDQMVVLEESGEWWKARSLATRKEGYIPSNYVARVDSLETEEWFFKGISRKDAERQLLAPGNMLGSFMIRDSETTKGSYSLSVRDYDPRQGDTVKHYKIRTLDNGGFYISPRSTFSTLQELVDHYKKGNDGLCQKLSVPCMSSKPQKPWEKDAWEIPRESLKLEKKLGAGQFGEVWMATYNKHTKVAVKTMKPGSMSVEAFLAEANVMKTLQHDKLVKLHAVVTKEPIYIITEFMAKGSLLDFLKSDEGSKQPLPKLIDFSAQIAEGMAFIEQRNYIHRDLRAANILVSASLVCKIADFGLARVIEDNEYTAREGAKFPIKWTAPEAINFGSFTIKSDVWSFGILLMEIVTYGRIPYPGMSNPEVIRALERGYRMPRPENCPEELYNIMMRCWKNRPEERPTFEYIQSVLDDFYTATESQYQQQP
Chain of FYN (P06241 whole entry): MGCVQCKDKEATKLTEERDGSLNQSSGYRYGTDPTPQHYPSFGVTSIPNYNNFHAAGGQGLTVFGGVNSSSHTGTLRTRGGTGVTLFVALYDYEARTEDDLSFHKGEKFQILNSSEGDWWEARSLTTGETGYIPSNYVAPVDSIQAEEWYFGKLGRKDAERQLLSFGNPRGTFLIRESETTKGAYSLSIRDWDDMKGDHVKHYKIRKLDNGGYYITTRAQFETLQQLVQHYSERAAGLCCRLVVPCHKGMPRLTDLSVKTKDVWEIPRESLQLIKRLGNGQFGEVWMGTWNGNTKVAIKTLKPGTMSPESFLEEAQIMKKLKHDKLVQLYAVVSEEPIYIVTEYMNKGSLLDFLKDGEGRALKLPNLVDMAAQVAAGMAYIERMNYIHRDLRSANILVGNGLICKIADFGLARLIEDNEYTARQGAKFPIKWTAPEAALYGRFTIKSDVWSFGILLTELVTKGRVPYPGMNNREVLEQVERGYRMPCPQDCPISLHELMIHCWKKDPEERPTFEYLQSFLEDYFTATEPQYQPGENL
Chain of LYN (P07948 whole entry): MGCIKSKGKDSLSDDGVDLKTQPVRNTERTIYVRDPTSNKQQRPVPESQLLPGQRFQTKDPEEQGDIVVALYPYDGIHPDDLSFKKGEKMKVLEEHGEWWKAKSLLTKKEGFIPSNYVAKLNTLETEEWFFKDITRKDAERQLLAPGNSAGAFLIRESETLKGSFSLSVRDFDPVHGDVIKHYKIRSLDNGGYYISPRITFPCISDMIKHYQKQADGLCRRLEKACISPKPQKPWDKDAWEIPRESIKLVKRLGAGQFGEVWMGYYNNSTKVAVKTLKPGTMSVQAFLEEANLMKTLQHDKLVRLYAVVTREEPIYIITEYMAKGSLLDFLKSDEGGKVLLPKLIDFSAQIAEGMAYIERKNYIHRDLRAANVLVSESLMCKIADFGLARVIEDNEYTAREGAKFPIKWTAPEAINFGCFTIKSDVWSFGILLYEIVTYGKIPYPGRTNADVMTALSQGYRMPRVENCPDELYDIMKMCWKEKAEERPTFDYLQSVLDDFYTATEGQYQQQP
Chain of LCK (P06239 whole entry): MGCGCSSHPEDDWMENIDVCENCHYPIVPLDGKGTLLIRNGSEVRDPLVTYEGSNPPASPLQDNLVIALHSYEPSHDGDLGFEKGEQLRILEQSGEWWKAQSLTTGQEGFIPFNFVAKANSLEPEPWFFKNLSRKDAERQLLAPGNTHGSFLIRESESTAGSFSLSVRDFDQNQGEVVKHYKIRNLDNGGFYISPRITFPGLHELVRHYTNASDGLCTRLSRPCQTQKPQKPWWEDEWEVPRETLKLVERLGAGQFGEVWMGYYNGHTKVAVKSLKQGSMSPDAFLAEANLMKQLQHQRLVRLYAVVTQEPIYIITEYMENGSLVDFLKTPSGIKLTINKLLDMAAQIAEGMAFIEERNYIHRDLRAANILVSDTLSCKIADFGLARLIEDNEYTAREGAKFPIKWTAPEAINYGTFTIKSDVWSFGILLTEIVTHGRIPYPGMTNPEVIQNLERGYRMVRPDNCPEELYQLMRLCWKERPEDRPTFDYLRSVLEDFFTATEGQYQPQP

On to `COc1cc(-c2nn(CCN3CCC(CN(C)C)CC3)c3ncnc(N)c23)ccc1NC(=O)OC(C)(C)C` [Compound 503, tert-butyl N-[4-[4-amino-1-[2-[4-(dimethylaminomethyl)-1-piperidyl]ethyl]pyrazolo[3,4-d]pyrimidin-3-yl]-2-methoxy-phenyl]carbamate], for which the IC50 on PDGFRa (setting [4]) is above 1000 nM; at PDGFRa (recombinant kinase, read-out: IC50 PDGFRα) it was above 10000 nM; against YES it was below 0.5 nM; at YES (setting [5]), below 10 nM; on LCK (setting [6]) it was below 10 nM; at LYN (setting [7]) it was below 10 nM. The IC50 on KIT is 7130 nM; on KIT (setting [8]), above 1000 nM; on BLK (setting [9]), below 10 nM; at HCK (setting [10]), below 10 nM; against FYN, 4.6 nM; on FYN (setting [11]) it was below 10 nM. Further, the IC50 at mTOR (setting [12]) is above 1000 nM; on mTOR (recombinant kinase, read-out: IC50 mTOR) it was above 10000 nM; at RET it was above 10000 nM; on RET (setting [13]), above 1000 nM; on FGR (setting [14]), below 10 nM; on SRC, below 10 nM. Moreover, the IC50 was 100 to 1000 nM at ABL (setting [15]); 189 nM at ABL (recombinant kinase, read-out: IC50 Abl); below 10 nM at FRK/PTK5 (setting [16]). For the same compound, the “potency (IC50) against Yes, in words” value at YES is given as “sub-nano molar”. For the same compound, the “potency (IC50) against Src, in words” value at SRC is reported as “sub-nano molar”.
Usually inhibition stands for the relative decrease from the control value, in per cent. A word on the fraction unbound: it is free concentration divided by total concentration. `COc1cc(-c2nn(CCN3CCC(N4CCCCC4)CC3)c3ncnc(N)c23)ccc1NC(=O)OC(C)(C)C` [Compound 519, tert-butyl N-[4-[4-amino-1-[2-[4-(1-piperidyl)-1-piperidyl]ethyl]pyrazolo[3,4-d]pyrimidin-3-yl]-2-methoxy-phenyl]carbamate]: the IC50 was above 1000 nM at PDGFRa (setting [4]); above 1000 nM on PDGFRa (read-out: Kinase Screening (IC50) PDGFRa); below 10 nM at LCK (read-out: Kinase Screening (IC50) LCK, Src Family); below 10 nM at LCK (setting [6]); below 10 nM on LYN (read-out: Kinase Screening (IC50) LYN, Src Family); below 10 nM at LYN (setting [7]). Moreover, the IC50 on KIT (read-out: Kinase Screening (IC50) c-KIT) was above 1000 nM; at KIT (setting [8]) it was above 1000 nM; at BLK (read-out: Kinase Screening (IC50) BLK, Src Family), below 10 nM; at BLK (setting [9]), below 10 nM; at HCK (read-out: Kinase Screening (IC50) HCK, Src Family) it was below 10 nM; at HCK (setting [10]) it was below 10 nM. For the same compound, the IC50 on FYN (read-out: Kinase Screening (IC50) FYN, Src Family) is below 10 nM; at FYN (setting [11]), below 10 nM; at mTOR (setting [12]) it was above 1000 nM; on mTOR (read-out: Kinase Screening (IC50) mTOR), above 1000 nM; at RET (read-out: Kinase Screening (IC50) RET), above 1000 nM; at RET (setting [13]), above 1000 nM. The IC50 was 12600 nM on hERG channel; below 10 nM at FGR (read-out: Kinase Screening (IC50) FGR, Src Family); below 10 nM on FGR (setting [14]); below 10 nM on FRK/PTK5 (read-out: Kinase Screening (IC50) FRK, Src Family); below 10 nM on FRK/PTK5 (setting [16]). Moreover, the inhibition at 10 µM on CYP1A2 was -1.6%; against CYP2C9, -70.3%; at CYP2D6, 3%; against CYP2C19, -3.1%; on CYP3A4, -12.1%. Moreover, the fraction unbound in [1] came out at 0.106; in data set [2], 0.143.
Regarding `COc1cc(-c2nn(CCN3CCC(N(C)C)CC3)c3ncnc(N)c23)ccc1NC(=O)CCc1ccccc1` [Compound 531, N-[4-[4-amino-1-[2-[4-(dimethylamino)-1-piperidyl]ethyl]pyrazolo[3,4-d]pyrimidin-3-yl]-2-methoxy-phenyl]-3-phenyl-propanamide], the EC50 with MDA-MB-231 cells is above 10000 nM; in the data set on MCF7 cells it was 1000 to 10000 nM; in [3], above 10000 nM.
Regarding `COc1cc(-c2nn(CCN3CCC(N(C)C)CC3)c3ncnc(N)c23)ccc1N` [Compound 532, 3-(4-amino-3-methoxy-phenyl)-1-[2-[4-(dimethylamino)-1-piperidyl]ethyl]pyrazolo[3,4-d]pyrimidin-4-amine], the results for the EC50 (with MDA-MB-231 cells; in the data set on MCF7 cells; in data set [3]) were 1000 to 10000 nM, 1000 to 10000 nM and above 10000 nM, respectively.
On to `CN(C)C1CCN(CCn2nc(-c3cccc(NC(=O)OC(C)(C)C)c3)c3c(N)ncnc32)CC1` [Compound 542, tert-butyl N-[3-[4-amino-1-[2-[4-(dimethylamino)-1-piperidyl]ethyl]pyrazolo[3,4-d]pyrimidin-3-yl]phenyl]carbamate], for which the EC50 (with MDA-MB-231 cells; in the data set on MCF7 cells; in data set [3]) was above 10000 nM in each case.
In the case of `CN(C)C1CCN(CCn2nc(-c3ccc(NC(=O)OC(C)(C)C)cc3)c3c(N)ncnc32)CC1` [Compound 543], the IC50 on PDGFRa (setting [4]) was above 1000 nM; at YES (setting [5]), below 10 nM; at LCK, 10 to 100 nM; on KIT (setting [8]), above 1000 nM; on FYN it was 100 to 1000 nM; at mTOR (setting [12]), above 1000 nM. In addition, the IC50 was above 1000 nM on RET (setting [13]), below 10 nM on FGR (setting [14]), 10 to 100 nM on SRC and above 1000 nM on ABL (setting [15]).
As for `COc1cc(-c2nn(CCN3CCC(N(C)C)CC3)c3ncnc(N)c23)ccc1Cc1ncc(C)o1` [Compound 584, 1-[2-[4-(dimethylamino)-1-piperidyl]ethyl]-3-[3-methoxy-4-[(5-methyloxazol-2-yl)methyl]phenyl]pyrazolo[3,4-d]pyrimidin-4-amine], the IC50 is above 1000 nM at PDGFRa (setting [4]); below 10 nM on YES (setting [5]); below 10 nM on LCK (setting [6]); above 1000 nM at KIT (setting [8]); 100 to 1000 nM on FYN; above 1000 nM on mTOR (setting [12]). Besides, the IC50 at RET (setting [13]) is above 1000 nM; at FGR (setting [14]), below 10 nM; at SRC, 10 to 100 nM; on ABL (setting [15]), above 1000 nM.

For the origin of these results see patent US10294227B2, “Compounds” (UNIVERSITY COURT OF THE UNIVERSITY OF EDINBURGH, priority 2015, dated 2019).
